Results as given in ChEMBL document CHEMBL5678809, “Preclinical characterization of GLPG0634, a selective inhibitor of JAK1, for the treatment of inflammatory diseases” (J Immunol, 2013).
Active and inactive are the calls of the source. No cut-off for these calls is given here.

What was measured:
Mus musculus = assay: Antiarthritic activity against collagen-induced arthritis DBA/1J mouse model assessed as MCP-3 level in serum at 50 mg/kg, po measured for 4 hrs by luminex analysis (reference value: 224 +/- 15.3 ng/ml); format: functional
[1] = Oral bioavailability in Sprague-Dawley rat at 5 mg/kg measured upto 24 hrs by LC-MS analysis; format: ADME, organism-based; details: in vivo
[2] = molecular target: Hepatocyte growth factor receptor (Homo sapiens) (UniProt P08581); assay: Inhibition of Met (unknown origin) at 1 uM relative to control
[3] = molecular target: NUAK family SNF1-like kinase 1 (Homo sapiens) (UniProt O60285); assay: Inhibition of ARK5 (unknown origin) at 1 uM relative to control
[4] = AUC (0 to 24 hrs) in Sprague-Dawley rat at 5 mg/kg, po measured upto 24 hrs by LC-MS analysis; format: ADME, organism-based; details: in vivo
[5] = molecular target: Proto-oncogene tyrosine-protein kinase ROS (Homo sapiens) (UniProt P08922); assay: Inhibition of Ros (unknown origin) at 1 uM relative to control
[6] = molecular target: Vascular endothelial growth factor receptor 1 (Homo sapiens, UniProt P17948); assay: Inhibition of Flt1 (unknown origin)
[7] = molecular target: Serine/threonine-protein kinase 24 (Homo sapiens) (UniProt Q9Y6E0); assay: Inhibition of MST3 (unknown origin) at 1 uM relative to control
[8] = molecular target: Proto-oncogene tyrosine-protein kinase receptor Ret (Homo sapiens) (UniProt P07949); assay: Inhibition of Ret (unknown origin) at 1 uM relative to control
[9] = molecular target: Tyrosine-protein kinase receptor UFO (Homo sapiens) (UniProt P30530); assay: Inhibition of Axl (unknown origin) at 1 uM relative to control
Sequence of Tyrosine-protein kinase receptor UFO (Homo sapiens) (P30530 whole entry): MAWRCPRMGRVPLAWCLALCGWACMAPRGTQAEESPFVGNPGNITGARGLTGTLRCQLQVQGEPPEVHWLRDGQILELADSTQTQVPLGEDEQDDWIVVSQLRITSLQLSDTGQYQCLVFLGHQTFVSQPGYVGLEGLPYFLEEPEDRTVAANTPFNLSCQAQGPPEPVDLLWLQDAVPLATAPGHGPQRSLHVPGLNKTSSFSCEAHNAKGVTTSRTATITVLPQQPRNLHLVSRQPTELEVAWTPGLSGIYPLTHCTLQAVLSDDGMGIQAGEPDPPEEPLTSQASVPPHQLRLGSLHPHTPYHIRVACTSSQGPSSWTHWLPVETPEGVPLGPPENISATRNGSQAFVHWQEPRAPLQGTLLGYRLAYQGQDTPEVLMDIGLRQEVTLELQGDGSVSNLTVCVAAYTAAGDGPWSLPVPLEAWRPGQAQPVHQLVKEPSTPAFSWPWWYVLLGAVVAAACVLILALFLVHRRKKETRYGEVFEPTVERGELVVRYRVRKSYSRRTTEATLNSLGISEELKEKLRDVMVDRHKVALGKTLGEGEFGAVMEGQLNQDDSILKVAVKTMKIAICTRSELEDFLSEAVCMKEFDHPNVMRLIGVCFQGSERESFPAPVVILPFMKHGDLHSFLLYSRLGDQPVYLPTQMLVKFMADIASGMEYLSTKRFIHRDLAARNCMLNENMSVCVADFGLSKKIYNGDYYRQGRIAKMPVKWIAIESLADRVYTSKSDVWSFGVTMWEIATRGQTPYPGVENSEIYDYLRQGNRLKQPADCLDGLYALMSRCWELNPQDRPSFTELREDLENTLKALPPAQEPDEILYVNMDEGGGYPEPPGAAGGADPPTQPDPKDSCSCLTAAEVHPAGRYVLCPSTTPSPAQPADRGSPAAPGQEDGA

[10] = molecular target: Eukaryotic elongation factor 2 kinase (Homo sapiens) (UniProt O00418); assay: Inhibition of eEF2K (unknown origin) at 1 uM relative to control
Aurora kinase B = Aurora kinase B (Homo sapiens, UniProt Q96GD4); assay: Inhibition of AURORA-B (unknown origin)
[11] = molecular target: Mitogen-activated protein kinase kinase kinase 7 (Homo sapiens, UniProt O43318); assay: Inhibition of TAK1 (unknown origin)
[12] = molecular target: Muscle, skeletal receptor tyrosine-protein kinase (Homo sapiens) (UniProt O15146); assay: Inhibition of MuSK (unknown origin) at 1 uM relative to control
[13] = molecular target: Mitogen-activated protein kinase 1 (Homo sapiens) (UniProt P28482); assay: Inhibition of MAPK1 (unknown origin) at 1 uM relative to control
[14] = molecular target: MAP kinase-activated protein kinase 2 (Homo sapiens) (UniProt P49137); assay: Inhibition of MAPK2 (unknown origin) at 1 uM relative to control
[15] = molecular target: FKBP12A/mTOR (Homo sapiens) (UniProt P62942+P42345); assay: Inhibition of mTOR/FKBP12 (unknown origin) at 1 uM relative to control; format: protein-complex assay
Sequence of FKBP12A/mTOR (Homo sapiens) (P62942 2-108 limits assumed, other chains not shown): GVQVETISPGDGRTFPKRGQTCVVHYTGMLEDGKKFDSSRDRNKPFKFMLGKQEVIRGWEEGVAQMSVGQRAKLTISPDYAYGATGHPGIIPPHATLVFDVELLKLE

Homo sapiens = organism: Homo sapiens; assay: Inhibition of PKB3 (unknown origin) at 1 uM relative to control
[16] = molecular target: Vascular endothelial growth factor receptor 3 (Homo sapiens, UniProt P35916); assay: Inhibition of Flt4 (unknown origin) at 1 uM relative to control
[17] = molecular target: Serine/threonine-protein kinase tousled-like 2 (Homo sapiens) (UniProt Q86UE8); assay: Inhibition of TLK2 (unknown origin) at 1 uM relative to control
[18] = molecular target: Serine/threonine-protein kinase TBK1 (Homo sapiens, UniProt Q9UHD2); assay: Inhibition of TBK1 (unknown origin)
Sequence of Serine/threonine-protein kinase TBK1 (Q9UHD2 whole entry): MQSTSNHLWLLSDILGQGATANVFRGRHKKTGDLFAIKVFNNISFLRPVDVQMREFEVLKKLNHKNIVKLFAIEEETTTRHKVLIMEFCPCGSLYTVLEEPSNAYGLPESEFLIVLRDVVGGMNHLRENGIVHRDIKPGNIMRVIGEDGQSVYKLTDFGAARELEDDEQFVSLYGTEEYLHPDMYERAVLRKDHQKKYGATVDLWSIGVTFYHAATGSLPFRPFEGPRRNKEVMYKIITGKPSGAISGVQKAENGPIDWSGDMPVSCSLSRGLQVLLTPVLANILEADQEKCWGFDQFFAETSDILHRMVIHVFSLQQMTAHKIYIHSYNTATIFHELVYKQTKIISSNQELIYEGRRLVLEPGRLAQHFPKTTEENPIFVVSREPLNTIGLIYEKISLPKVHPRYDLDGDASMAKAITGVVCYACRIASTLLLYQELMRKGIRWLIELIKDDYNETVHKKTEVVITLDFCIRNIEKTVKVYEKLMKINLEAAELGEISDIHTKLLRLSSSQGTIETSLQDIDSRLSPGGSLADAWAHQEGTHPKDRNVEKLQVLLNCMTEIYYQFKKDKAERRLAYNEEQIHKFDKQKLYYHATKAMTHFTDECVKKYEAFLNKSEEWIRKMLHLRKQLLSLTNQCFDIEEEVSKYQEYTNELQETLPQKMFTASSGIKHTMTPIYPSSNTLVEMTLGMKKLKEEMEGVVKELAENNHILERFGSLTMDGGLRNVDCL

Rattus norvegicus [19] = assay: Antiarthritic activity against collagen-induced arthritis Dark Agouti rat model assessed as reduction in bone degradation by measuring larsen score administered 3 times a week and measured on day 7 by X-ray analysis; format: functional, organism-based; details: dose 3.0 mg/kg, time 7.0 day
[20] = molecular target: MAP kinase-interacting serine/threonine-protein kinase 2 (Homo sapiens, UniProt Q9HBH9); assay: Inhibition of MNK2 (unknown origin) at 1 uM relative to control
[21] = Half life in CD-1 mouse at 1 mg/kg, iv measured upto 8 hrs by LC-MS analysis; format: ADME, organism-based; details: in vivo
[22] = molecular target: cGMP-dependent protein kinase 1 (Homo sapiens) (UniProt Q13976); assay: Inhibition of PKG1 (unknown origin) at 1 uM relative to control
[23] = molecular target: Serine/threonine-protein kinase Sgk2 (Homo sapiens) (UniProt Q9HBY8); assay: Inhibition of SGK2 (unknown origin) at 1 uM relative to control
[24] = molecular target: Tyrosine-protein kinase Mer (Homo sapiens) (UniProt Q12866); assay: Inhibition of Mer (unknown origin) at 1 uM relative to control
Sequence of Tyrosine-protein kinase Mer (Homo sapiens) (Q12866 whole entry): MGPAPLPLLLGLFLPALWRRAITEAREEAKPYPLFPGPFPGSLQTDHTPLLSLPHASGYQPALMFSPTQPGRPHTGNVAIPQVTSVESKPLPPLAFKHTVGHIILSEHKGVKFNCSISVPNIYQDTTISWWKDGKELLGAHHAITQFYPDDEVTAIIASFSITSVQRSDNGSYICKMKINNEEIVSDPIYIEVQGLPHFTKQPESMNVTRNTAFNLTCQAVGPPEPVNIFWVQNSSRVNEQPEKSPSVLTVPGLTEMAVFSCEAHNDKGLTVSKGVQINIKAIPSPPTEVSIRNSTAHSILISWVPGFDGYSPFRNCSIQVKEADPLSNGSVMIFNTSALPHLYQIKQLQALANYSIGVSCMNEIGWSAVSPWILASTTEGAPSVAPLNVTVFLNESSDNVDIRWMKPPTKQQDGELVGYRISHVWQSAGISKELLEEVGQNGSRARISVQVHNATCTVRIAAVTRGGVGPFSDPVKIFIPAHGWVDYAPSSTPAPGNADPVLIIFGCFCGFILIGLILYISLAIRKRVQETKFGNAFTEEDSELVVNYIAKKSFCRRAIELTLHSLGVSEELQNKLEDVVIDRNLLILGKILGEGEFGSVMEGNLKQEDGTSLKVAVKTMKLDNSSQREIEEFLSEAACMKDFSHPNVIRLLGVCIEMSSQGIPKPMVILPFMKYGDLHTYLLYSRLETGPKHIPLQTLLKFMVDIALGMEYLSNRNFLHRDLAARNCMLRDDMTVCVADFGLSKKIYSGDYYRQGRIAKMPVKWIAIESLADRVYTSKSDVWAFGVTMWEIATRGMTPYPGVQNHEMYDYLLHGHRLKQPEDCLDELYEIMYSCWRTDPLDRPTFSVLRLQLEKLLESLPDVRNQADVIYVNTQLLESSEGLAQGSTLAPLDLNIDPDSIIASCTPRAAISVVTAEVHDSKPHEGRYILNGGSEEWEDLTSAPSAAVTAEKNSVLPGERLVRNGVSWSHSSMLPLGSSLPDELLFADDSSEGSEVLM

[25] = molecular target: Ephrin type-A receptor 8 (Homo sapiens) (UniProt P29322); assay: Inhibition of EphA8 (unknown origin) at 1 uM relative to control
Sequence of Ephrin type-A receptor 8 (Homo sapiens) (P29322 whole entry): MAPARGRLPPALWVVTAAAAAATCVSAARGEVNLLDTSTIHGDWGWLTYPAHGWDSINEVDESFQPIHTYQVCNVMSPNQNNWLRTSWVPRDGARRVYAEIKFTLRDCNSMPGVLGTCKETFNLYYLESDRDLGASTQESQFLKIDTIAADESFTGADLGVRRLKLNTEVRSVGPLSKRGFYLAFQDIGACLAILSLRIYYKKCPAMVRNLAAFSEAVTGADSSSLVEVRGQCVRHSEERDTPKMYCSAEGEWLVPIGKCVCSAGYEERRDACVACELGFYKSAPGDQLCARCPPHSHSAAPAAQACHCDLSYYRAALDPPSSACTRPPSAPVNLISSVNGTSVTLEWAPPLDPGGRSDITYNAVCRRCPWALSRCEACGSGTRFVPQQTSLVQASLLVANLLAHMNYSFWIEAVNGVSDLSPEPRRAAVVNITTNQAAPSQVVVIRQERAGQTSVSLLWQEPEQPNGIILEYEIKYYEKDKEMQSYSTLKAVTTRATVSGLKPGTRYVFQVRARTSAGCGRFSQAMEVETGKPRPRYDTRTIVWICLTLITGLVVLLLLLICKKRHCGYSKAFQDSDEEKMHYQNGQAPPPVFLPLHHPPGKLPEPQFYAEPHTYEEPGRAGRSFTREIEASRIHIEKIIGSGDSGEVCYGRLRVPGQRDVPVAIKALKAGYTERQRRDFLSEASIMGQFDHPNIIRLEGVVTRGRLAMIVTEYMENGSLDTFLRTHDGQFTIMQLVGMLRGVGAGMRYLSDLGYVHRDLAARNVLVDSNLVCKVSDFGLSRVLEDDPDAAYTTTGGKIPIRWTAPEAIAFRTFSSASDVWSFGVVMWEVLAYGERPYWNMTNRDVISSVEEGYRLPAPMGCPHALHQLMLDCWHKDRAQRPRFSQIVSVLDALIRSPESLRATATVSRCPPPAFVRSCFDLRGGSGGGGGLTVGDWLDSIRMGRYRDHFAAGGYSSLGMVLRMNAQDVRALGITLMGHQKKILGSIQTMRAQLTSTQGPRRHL

[26] = Half life in Sprague-Dawley rat at 5 mg/kg, po measured upto 24 hrs by LC-MS analysis; format: ADME, organism-based; details: in vivo
[27] = molecular target: Dual specificity mitogen-activated protein kinase kinase 7 (Homo sapiens) (UniProt O14733); assay: Inhibition of MKK7 (unknown origin) at 1 uM relative to control
[28] = molecular target: Protein-tyrosine kinase 6 (Homo sapiens) (UniProt Q13882); assay: Inhibition of BRK (unknown origin) at 1 uM relative to control
BaF3 = assay: Antiproliferative activity against mouse BaF3 cells assessed as IL-3-induced inhibition of cell growth incubated for 40 hrs; format: functional, cell-based; details: BaF3, 40 h
Rattus norvegicus [29] = assay: Antiarthritic activity against collagen-induced arthritis Dark Agouti rat model assessed as reduction in clinical score at 1 to 10 mg/kg, po measured after day 5; format: functional, organism-based; details: dose 1-10 mg/kg, time 5.0 day
[30] = Cmax in Sprague-Dawley rat at 5 mg/kg, po measured upto 24 hrs by LC-MS analysis; format: ADME, organism-based; details: in vivo
[31] = molecular target: Mitogen-activated protein kinase kinase kinase kinase 4 (Homo sapiens, UniProt O95819); assay: Inhibition of MAP4K4 (unknown origin)
Sequence of Mitogen-activated protein kinase kinase kinase kinase 4 (O95819 whole entry): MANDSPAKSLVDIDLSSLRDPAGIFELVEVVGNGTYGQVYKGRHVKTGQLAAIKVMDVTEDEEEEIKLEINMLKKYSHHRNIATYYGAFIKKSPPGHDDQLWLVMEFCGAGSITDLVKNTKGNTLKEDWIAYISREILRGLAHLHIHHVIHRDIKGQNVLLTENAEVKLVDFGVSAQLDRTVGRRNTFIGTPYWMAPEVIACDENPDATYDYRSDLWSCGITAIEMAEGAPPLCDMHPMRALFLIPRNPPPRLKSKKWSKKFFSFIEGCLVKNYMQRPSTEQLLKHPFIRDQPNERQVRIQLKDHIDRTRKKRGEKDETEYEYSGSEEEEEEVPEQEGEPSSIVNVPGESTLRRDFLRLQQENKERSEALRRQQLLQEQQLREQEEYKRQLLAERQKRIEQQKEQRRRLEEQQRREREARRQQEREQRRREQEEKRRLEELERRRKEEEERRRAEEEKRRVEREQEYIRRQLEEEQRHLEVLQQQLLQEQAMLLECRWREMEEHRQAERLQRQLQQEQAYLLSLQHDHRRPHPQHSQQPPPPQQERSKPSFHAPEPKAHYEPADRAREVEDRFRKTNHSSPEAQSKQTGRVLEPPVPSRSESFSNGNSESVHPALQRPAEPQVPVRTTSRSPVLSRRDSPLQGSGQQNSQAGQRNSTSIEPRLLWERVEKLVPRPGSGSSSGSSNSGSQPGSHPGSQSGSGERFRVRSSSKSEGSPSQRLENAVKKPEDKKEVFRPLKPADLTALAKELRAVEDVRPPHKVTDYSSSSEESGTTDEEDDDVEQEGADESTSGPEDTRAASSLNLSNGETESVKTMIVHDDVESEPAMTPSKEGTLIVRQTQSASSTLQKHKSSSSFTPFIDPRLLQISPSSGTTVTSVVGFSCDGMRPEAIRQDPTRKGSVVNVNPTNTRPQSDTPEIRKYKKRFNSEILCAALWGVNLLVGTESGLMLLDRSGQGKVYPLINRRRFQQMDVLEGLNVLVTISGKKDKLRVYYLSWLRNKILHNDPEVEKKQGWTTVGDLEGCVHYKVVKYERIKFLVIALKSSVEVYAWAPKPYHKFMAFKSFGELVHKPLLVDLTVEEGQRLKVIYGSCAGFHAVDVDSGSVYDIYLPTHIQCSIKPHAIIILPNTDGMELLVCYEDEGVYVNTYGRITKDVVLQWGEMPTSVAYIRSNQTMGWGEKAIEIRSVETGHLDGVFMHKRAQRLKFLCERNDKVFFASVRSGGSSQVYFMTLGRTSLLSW

[32] = molecular target: Serine/threonine-protein kinase ICK (Homo sapiens, UniProt Q9UPZ9); assay: Inhibition of ICK (unknown origin)
[33] = molecular target: Serine/threonine-protein kinase DCLK2 (Homo sapiens) (UniProt Q8N568); assay: Inhibition of DCAMKL2 (unknown origin) at 1 uM relative to control
[34] = molecular target: Tyrosine-protein kinase ITK/TSK (Homo sapiens) (UniProt Q08881); assay: Inhibition of Itk (unknown origin) at 1 uM relative to control
[35] = molecular target: SRSF protein kinase 3 (Homo sapiens) (UniProt Q9UPE1); assay: Inhibition of MSSK1 (unknown origin) at 1 uM relative to control
[36] = molecular target: Mitogen-activated protein kinase 13 (Homo sapiens) (UniProt O15264); assay: Inhibition of SAPK4 (unknown origin) at 1 uM relative to control
Misshapen-like kinase 1 = Misshapen-like kinase 1 (Homo sapiens, UniProt Q8N4C8); assay: Inhibition of MINK (unknown origin)
[37] = molecular target: Angiopoietin-1 receptor (Homo sapiens) (UniProt Q02763); assay: Inhibition of Tie2 (unknown origin) at 1 uM relative to control

bioavailability [1]: 45%
inhibition [2]: -3%
inhibition [3]: 1%
AUC [4]: 1680 ng·h/mL
inhibition [5]: -9%
IC50 [6]: 1.33 µM
inhibition [7]: 0%
inhibition [8]: 9%
inhibition [9]: -5%
inhibition [10]: -4%
IC50 (Aurora kinase B): > 10 µM
IC50 [11]: > 10 µM
inhibition [12]: -3%
inhibition [13]: 1%
inhibition [14]: 0%
inhibition [15]: 3%
inhibition (Homo sapiens): -6%
inhibition [16]: 77%
inhibition [17]: -6%
IC50 [18]: 1.79 µM
inhibition [20]: -10%
half-life [21]: 2.5 h
inhibition [22]: -1%
inhibition [23]: -4%
inhibition [24]: 44%
inhibition [25]: 1%
half-life [26]: 3.9 h
inhibition [27]: 13%
inhibition [28]: -2%
IC50 (BaF3; read-out: IC50): 4.55 µM
IC50 (BaF3; read-out: pIC50 (converted)): 4.57 µM
Cmax [30]: 310 ng/mL
IC50 [31]: > 10 µM
IC50 [32]: > 10 µM
inhibition [33]: 12%
inhibition [34]: -4%
inhibition [35]: 2%
inhibition [36]: -10%
IC50 (Misshapen-like kinase 1): > 10 µM
inhibition [37]: -2%
Compound: O=C(Nc1nc2cccc(-c3ccc(CN4CCS(=O)(=O)CC4)cc3)n2n1)C1CC1 [FILGOTINIB]
Activity (Mus musculus): 153.8 ng/mL
Activity (Rattus norvegicus [19]): Dose-Dependent Effect
Activity (Rattus norvegicus [29]): Active
